From patent publication US9321759B2, “Methods and use of bifunctional enzyme-building clamp-shaped molecules” (The Trustees Of The University Of Pennsylvania, priority 2011, dated 2016)

Experiments:
[1] = biological target: T1, EGFR (Homo sapiens, UniProt P00533); test: Phosphorylation of EGFR Tyr residues in NE91 cells (Western blot); type: cell-based; design: expressed in transfected cells; host or cells: NE91 mouse fibroblasts; settings: FIG. 3
Method: NE91 cells (mouse fibroblasts over-expressing wild type human type EGFR) were starved overnight, incubated with an exemplary mutation mimicking compound (designated EEO3, see below; 0.1 μM; lanes 2, 6 of FIG. 2), Tarceva® (0.1 μM; lanes 3, 7 of FIG. 2), or both (lanes 4, 8 of FIG. 2) for one hour, and harvested (lanes 1-4 of FIG. 2), or induced with EGF (50 ng/mL) for 15 minutes and harvested. Equal amounts of total protein were loaded on 10% SDS-PAGE gel, separated, transferred to a PVDF membrane, and probed with pY99, pERK antibodies (Santa Cruz Biotechnology), or antibodies against specific phosphotyrosines of EGFR (pY845, pY1068, pY992) or AKT phosphor-serine (473; Cell Signaling Technology). Total EGFR and γ-tubulin levels were determined as controls using the 1005 (Santa Cruz Biotechnology) and GTU88 (Sigma) Abs, respectively.
To estimate the inhibitory activity of Compound C318 on EGFR signaling, its effect on the phosphorylation of specific Tyr residues of EGFR kinase was tested (see FIG. 3). The methods used were the same as described in Example 3.

[2] = biological target: T2, EGFR (L858R, T790M) (Homo sapiens, UniProt P00533, L858R/T790M); test: Kinase assay with Tarceva-resistant EGFR mutant, HotSpot technology; type: biochemical
T2 construct: purchased Reaction Biology Corp. (Malvern, Pa.)
Method: (§1) In an additional set of tests, EGFR assays were done to determine IC50 values using HotSpot^SM technology with the peptide substrate poly[Glu:Tyr] (4:1, 0.2 mg/ml). These tests were conducted by Reaction Biology Corp. (Malvern, Pa.; http://www.reactionbiology.com). Kinase reactions were carried out in 20 mmol/L HEPES (pH 7.5), 10 mmol/L MgCl2, 1 mmol/L EGTA, 0.02% Brij 35, 0.02 mg/mL bovine serum albumin, 2 mmol/L DTT, and 1% DMSO. The final concentration of ATP was 10 μmol/L. Purified recombinant kinases were incubated with serial 3-fold dilutions of test compounds starting at a final concentration of 1 μmol/L. ATP concentration was 10 μmol/L. Dose response curves were fitted using Prism 5.0 from Graph-Pad Software.
All these inhibitors were also tested by the same kinase assay using the Tarceva®-resistant EGFR kinase mutant, EGFR (L858R, T790M).

[3] = biological target: T1, EGFR; test: EGFR kinase assay, HotSpot technology; type: biochemical; design: purchased Reaction Biology Corp. (Malvern, Pa.); settings: ATP 10 μmol/L, substrate poly[Glu:Tyr]
Method: as §1

[4] = tested on: EGFR-over-expressing NE91 cells; test: Anchorage independent growth (soft agar colony formation) of NE91 cells; type: cell-based, mouse; settings: 0.1 μM, colonies counted after 3 weeks, FIG. 4(D)
Method: To evaluate the inhibitory effect of C318 on cell proliferation in vitro, the compound was tested for inhibition of the anchorage independent growth of EGFR-over-expressing NE91 cells (FIG. 4). Anchorage independent growth was determined by assessing the colony-forming efficiency of cells suspended in soft agar. Cells (5×10^3) were suspended in a 1 ml top layer (0.375% agarose 10% FBS/DMEM) in 6-cm culture dishes containing a 3 ml cell-free feeder layer consisting of 0.5% agarose in DMEM supplemented with 10% FBS and 20 mM Hepes (pH 7.5). Culture dishes were fed by 0.7 ml 10% FBS/DMEM containing 0.1 uM of C318 or Tarceva® once every 5 days. Colonies were visualized and counted after 3 weeks after staining with p-iodonitrotetrazolium violet (1 mg/ml).

T1 sequence (P00533 25-1210): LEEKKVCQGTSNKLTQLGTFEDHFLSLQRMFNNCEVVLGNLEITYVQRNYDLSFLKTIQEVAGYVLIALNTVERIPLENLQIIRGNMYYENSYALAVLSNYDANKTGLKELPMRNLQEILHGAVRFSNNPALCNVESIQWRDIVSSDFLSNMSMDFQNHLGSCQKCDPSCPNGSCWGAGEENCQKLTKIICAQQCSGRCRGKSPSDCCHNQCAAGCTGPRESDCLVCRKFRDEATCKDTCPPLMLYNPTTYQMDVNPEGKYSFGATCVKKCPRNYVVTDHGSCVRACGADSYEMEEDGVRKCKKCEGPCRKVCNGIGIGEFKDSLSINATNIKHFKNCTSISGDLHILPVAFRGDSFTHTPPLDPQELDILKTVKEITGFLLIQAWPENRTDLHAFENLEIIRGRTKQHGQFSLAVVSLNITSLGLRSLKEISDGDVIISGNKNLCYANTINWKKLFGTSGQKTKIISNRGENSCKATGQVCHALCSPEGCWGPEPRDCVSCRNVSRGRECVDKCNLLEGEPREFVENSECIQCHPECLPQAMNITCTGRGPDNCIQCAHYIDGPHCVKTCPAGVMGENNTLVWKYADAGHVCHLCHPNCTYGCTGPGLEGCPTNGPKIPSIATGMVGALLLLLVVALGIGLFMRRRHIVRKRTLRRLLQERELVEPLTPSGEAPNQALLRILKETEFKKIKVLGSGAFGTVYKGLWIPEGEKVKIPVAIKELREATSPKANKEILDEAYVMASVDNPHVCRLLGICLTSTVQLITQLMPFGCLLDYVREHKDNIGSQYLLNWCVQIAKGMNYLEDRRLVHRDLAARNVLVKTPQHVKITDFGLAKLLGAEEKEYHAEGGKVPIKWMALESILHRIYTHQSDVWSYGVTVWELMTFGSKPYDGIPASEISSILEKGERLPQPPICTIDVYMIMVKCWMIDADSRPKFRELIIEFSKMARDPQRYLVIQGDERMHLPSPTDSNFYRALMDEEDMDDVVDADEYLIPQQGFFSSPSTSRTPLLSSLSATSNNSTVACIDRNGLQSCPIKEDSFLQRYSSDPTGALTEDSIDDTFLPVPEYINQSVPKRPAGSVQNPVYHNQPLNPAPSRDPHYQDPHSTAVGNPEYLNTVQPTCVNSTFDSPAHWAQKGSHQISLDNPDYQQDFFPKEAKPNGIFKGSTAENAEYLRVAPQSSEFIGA
T2 sequence (P00533 25-1210 T790M/L858R): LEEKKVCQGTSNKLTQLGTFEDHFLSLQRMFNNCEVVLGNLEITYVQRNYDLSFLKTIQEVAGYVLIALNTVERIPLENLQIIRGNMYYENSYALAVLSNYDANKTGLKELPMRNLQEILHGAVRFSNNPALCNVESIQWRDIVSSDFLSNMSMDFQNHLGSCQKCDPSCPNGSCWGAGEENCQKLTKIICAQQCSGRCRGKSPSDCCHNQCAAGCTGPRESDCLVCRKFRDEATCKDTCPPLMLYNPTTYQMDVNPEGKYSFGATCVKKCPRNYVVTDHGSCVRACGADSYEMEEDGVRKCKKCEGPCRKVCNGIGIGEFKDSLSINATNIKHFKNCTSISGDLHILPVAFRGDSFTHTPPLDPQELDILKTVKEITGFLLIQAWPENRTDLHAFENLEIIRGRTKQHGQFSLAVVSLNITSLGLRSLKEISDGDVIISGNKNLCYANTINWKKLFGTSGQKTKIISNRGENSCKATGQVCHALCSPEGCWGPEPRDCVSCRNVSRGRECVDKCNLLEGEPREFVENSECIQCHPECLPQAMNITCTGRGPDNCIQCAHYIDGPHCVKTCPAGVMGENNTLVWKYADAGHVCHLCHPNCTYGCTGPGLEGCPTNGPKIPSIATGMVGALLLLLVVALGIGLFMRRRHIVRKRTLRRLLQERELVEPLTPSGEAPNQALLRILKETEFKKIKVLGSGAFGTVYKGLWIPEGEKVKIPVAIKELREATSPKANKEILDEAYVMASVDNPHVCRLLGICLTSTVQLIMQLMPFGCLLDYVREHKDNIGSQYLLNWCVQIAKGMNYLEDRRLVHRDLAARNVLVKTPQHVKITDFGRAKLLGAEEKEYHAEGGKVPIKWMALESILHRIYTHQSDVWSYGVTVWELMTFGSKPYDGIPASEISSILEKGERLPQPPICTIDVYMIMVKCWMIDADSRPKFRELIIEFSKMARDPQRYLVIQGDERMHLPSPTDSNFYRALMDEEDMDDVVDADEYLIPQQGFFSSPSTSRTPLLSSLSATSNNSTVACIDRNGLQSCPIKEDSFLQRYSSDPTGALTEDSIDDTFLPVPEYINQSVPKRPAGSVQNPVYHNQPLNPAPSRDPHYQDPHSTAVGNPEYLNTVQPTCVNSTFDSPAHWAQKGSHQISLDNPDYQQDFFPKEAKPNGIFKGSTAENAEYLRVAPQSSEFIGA

Q: How did the “inhibitory effects on EGFR Tyr phosphorylation relative to C-318” value [1] turn out when `O=C(CSc1nnc(SCC2CC2)s1)Nc1ccc2ncnc(Nc3cc(Cl)c(Cl)cc3F)c2c1` [Compound C318F] was run?
A: not as strong as that of C-318

Q: With `O=C(O)CC(Sc1nn(CC(=O)Nc2ccc3ncnc(Nc4cc(Cl)c(Cl)cc4F)c3c2)c(=S)s1)C(=O)O` (stereo not shown) [Compound C318N, 2-([4-[([4-[(4,5-dichloro-2-fluorophenyl)amino]quinazolin-6-yl]carbamoyl)methyl]-5-sulfanylidene-4,5-dihydro-1,3,4-thiadiazol-2-yl]sulfanyl)butanedioic acid] as the molecule, how does the “activity to inhibit EGFR (L858R, T790M) kinase, comparison” value ([2]; FIG. 7) read?
A: better activity than C318

Q: What about the inhibition at 0.1 µM ([2]; at 100 nM, ATP 10 μmol/L) of the same molecule?
A: ~20%

Q: And the IC50 [3]?
A: 0.5 to 1 nM

Q: `O=C(CSCCO)Nc1ccc2ncnc(Nc3cc(Cl)c(Cl)cc3F)c2c1` [Compound C300] was tested. Which “inhibitory effects on EGFR Tyr phosphorylation relative to C-318” value [1] did it give?
A: not as strong as that of C-318

Q: For `O=C(O)CC(Sc1nnc(SCC(=O)Nc2ccc3ncnc(Nc4cc(Cl)c(Cl)cc4F)c3c2)s1)C(=O)O` (stereo not shown) [Compound C318], which “inhibition of EGFR(L858R, T790M)” value ([2]; at 100 nM, ATP 10 μmol/L) is on record?
A: about the same inhibition as Tarceva®

Q: And the IC50 [3]?
A: 0.5 to 1 nM

Q: What about the “inhibition of phosphorylation of Tyr 992 of EGFR” value ([1]; compared with Tarceva) of the same molecule?
A: but not Tyr 992

Q: And the “inhibition of phosphorylation of Tyr 1068 of EGFR” value ([1]; compared with Tarceva)?
A: stronger activity than Tarceva®

Q: And the “inhibition of anchorage independent growth” value [4]?
A: more active than Tarceva®
